# System: gene expression in D04 melanoma cells
# Test: RNA-Seq differential expression analysis (DESeq2)
# Assay type: cell-based, human
# Details: up-regulated list
# Protocol: Total RNA was isolated using the RNeasy mini Kit (QIAGEN) following the manufacturer's protocol. Quality check for extracted RNA was done using 2100 Bioanalyzer (Agilent Technologies, USA) or Tapestation System (Agilent Technologies, USA). […] For samples used for identification of MAPK-responsive lncRNAs, paired-end, 101-bp sequencing was performed by Centrillion Genomic Services (Centrillion Biosciences, USA) on an Illumina HiSeq 2000. For DE gene analysis of ASO-transfected D04 samples, paired-end, 2×150-bp sequencing was performed by Genewiz (USA) on a Illumina HiSeq.
# Sequence reads were aligned to the human genome (hg19) using TopHat (Version 2.0.11).
# Differential expression (DE) analysis was done using DESeq2. Differentially expressed genes were defined by more than 1.5-fold changes (log 2 >0.58 or <−0.58) in expression with FDR<0.05. GO term analysis was done using DAVID Functional Annotation Clustering analysis.
# To examine the biomolecular changes upon TRASH-inhibition in melanoma, D04 cells were treated with TRASH-ASOs (SEQ ID NO:15) and Control-ASOs and RNA was extracted and used for RNA-Seq. […] These GO terms consisted of genes encoding growth factors, tyrosine kinases, G protein coupled receptor subunits, and collagen subunits. Scatter plot diagram showing differential gene expression after TRASH-ASO treatment compared to Control-ASO treatment. (cut-off for significance was adjusted p-value <0.05). Data was obtained from RNA-Seq of D04 melanoma cells, treatment period was three days. (FIG. 5c)
sequence,measurement,setting,value
"GACTGGAGATAATTAA (gapmer, pattern not given here) [SEQ ID NO: 15, GapmeR ASO targeting AC004540.4 (TRASH), exon region of both isoforms; used for in vitro experiments]",log2FoldChange CSRNP1,ENSG00000144655,0.6637
same,log2FoldChange MYH15,ENSG00000144821,1.163
same,log2FoldChange PHLDB2,ENSG00000144824,0.8277
same,log2FoldChange EAF2,ENSG00000145088,0.8471
same,log2FoldChange ECE2,ENSG00000145194,0.8019
same,log2FoldChange DDIT4L,ENSG00000145358,0.9547
same,log2FoldChange GFOD1,ENSG00000145990,0.6187
same,log2FoldChange TRIM7,ENSG00000146054,0.7787
same,log2FoldChange PM20D2,ENSG00000146281,0.6289
same,log2FoldChange EGFR,ENSG00000146648,0.8305
same,log2FoldChange GCNA,ENSG00000147174,0.8797
same,log2FoldChange MAL2,ENSG00000147676,0.6498
same,log2FoldChange RGS10,ENSG00000148908,0.5971
same,log2FoldChange ST14,ENSG00000149418,1.17
same,log2FoldChange PDCD4,ENSG00000150593,0.586
same,log2FoldChange IL18,ENSG00000150782,0.6212
same,log2FoldChange NOCT,ENSG00000151014,0.6791
same,log2FoldChange JMY,ENSG00000152409,0.9323
same,log2FoldChange NR4A2,ENSG00000153234,0.7664
same,log2FoldChange CCDC148,ENSG00000153237,0.745
same,log2FoldChange FAM167A,ENSG00000154319,0.6771
same,log2FoldChange LY96,ENSG00000154589,0.6345
same,log2FoldChange HKDC1,ENSG00000156510,0.717
same,log2FoldChange CD109,ENSG00000156535,0.6418
same,log2FoldChange NRG1,ENSG00000157168,0.8358
same,log2FoldChange WDR66,ENSG00000158023,1.174
same,log2FoldChange TPRG1L,ENSG00000158109,0.6032
same,log2FoldChange XDH,ENSG00000158125,0.6451
same,log2FoldChange GDPD5,ENSG00000158555,0.6005
same,log2FoldChange LAD1,ENSG00000159166,1.038
same,log2FoldChange STC1,ENSG00000159167,0.8653
same,log2FoldChange KLHL21,ENSG00000162413,0.8059
same,log2FoldChange FBLIM1,ENSG00000162458,0.7967
same,log2FoldChange ATF3,ENSG00000162772,0.6827
same,log2FoldChange COQ8A,ENSG00000163050,0.9489
same,log2FoldChange CRYGC,ENSG00000163254,1.014
same,log2FoldChange PAQR3,ENSG00000163291,0.7134
same,log2FoldChange KBTBD8,ENSG00000163376,1.017
same,log2FoldChange IGFN1,ENSG00000163395,1.134
same,log2FoldChange NKX6-1,ENSG00000163623,1.147
same,log2FoldChange PLB1,ENSG00000163803,0.8869
same,log2FoldChange LZTFL1,ENSG00000163818,0.6384
same,log2FoldChange RAET1E,ENSG00000164520,1.147
same,log2FoldChange DAGLB,ENSG00000164535,0.608
same,log2FoldChange GPR85,ENSG00000164604,0.7923
same,log2FoldChange SUN3,ENSG00000164744,0.9518
same,log2FoldChange EN2,ENSG00000164778,1.028
same,log2FoldChange FRAT1,ENSG00000165879,0.9146
same,log2FoldChange GPR176,ENSG00000166073,0.7841
same,log2FoldChange SVOP,ENSG00000166111,1.178
same,log2FoldChange C16orf71,ENSG00000166246,0.7026
same,log2FoldChange C16orf46,ENSG00000166455,0.9764
same,log2FoldChange GREM1,ENSG00000166923,1.047
same,log2FoldChange CD3D,ENSG00000167286,0.767
same,log2FoldChange AXL,ENSG00000167601,0.7701
same,log2FoldChange DNAAF3,ENSG00000167646,0.6547
same,log2FoldChange SERPINF2,ENSG00000167711,1.036
same,log2FoldChange KRT80,ENSG00000167767,0.6697
same,log2FoldChange ABCA3,ENSG00000167972,0.8489
same,log2FoldChange CAVIN2,ENSG00000168497,1.053
same,log2FoldChange IL12A,ENSG00000168811,0.635
same,log2FoldChange C8orf46,ENSG00000169085,0.7557
same,log2FoldChange HSPB3,ENSG00000169271,0.6385
same,log2FoldChange ZNF280A,ENSG00000169548,0.9372
same,log2FoldChange MT1E,ENSG00000169715,0.8998
same,log2FoldChange MZB1,ENSG00000170476,1.158
same,log2FoldChange S1PR1,ENSG00000170989,0.6805
same,log2FoldChange XAGE3,ENSG00000171402,0.6996
same,log2FoldChange ZNF57,ENSG00000171970,0.6499
same,log2FoldChange NIPAL4,ENSG00000172548,1.166
same,log2FoldChange MUC13,ENSG00000173702,1.042
same,log2FoldChange GOLT1A,ENSG00000174567,0.9754
same,log2FoldChange C11orf68,ENSG00000175573,0.673
same,log2FoldChange TSPEAR,ENSG00000175894,0.9662
same,log2FoldChange ENTHD1,ENSG00000176177,0.5983
same,log2FoldChange ZNF843,ENSG00000176723,0.9407
same,log2FoldChange RIMKLA,ENSG00000177181,0.711
same,log2FoldChange JUN,ENSG00000177606,0.715
same,log2FoldChange ZNF619,ENSG00000177873,0.5884
same,log2FoldChange ZNF114,ENSG00000178150,0.8507
same,log2FoldChange KCTD12,ENSG00000178695,0.7298
same,log2FoldChange FJX1,ENSG00000179431,0.6535
same,log2FoldChange PLD6,ENSG00000179598,0.696
same,log2FoldChange WDR97,ENSG00000179698,0.7195
same,log2FoldChange B3GNT3,ENSG00000179913,0.7904
same,log2FoldChange ANKRD18A,ENSG00000180071,0.7649
same,log2FoldChange OXTR,ENSG00000180914,1.093

# From patent US20250197864A1, “LNCRNA TRANSCRIPTS IN MELANOMAGENESIS” (The Regents of the University of California, priority 2021, published 2025)
